What all share (assay type): in vivo, rat
Assay [1] has as its system F344 kidney allograft in LEW recipient rats. The experiment in a line: Recipient kidney function, treatment with brief tacrolimus (Example 4). Conditions: brief dose of tacrolimus 1 mg/kg day 0-9 alone; allograft control week 7. Here is the method: (§1) The rats and kidney transplantation methods described in Example 1 were used. Tacrolimus at dose of 1 mg/kg from day 0 to day 9 after transplantation, and the compound (I) at doses of 10 mg/kg and 15 mg/kg from day 28 today 60 after transplantation were administered orally to recipient rats. In this study LEW recipients were briefly treated with oral tacrolimus at 1 mg/kg/day for 10 days after transplantation to avoid acute rejection and slow chronic rejection that gradually destroys the F344 kidney graft, resulting in functional and histological changes similar to the chronic rejection in human. The isograft, untreated allograft and allograft treated with tacrolimus 1 mg/kg for 10 days alone served as control groups. Blood and urine samples were collected once a week from recipients with kidney grafts described in Example 1 for measuring their plasma creatinine and proteinuria. Plasma creatinine was tested by Sigma Creatinine Kit and proteinuria by Bio-Rad Protein assay.

For assay [2] the test system is unchanged. Nature of the assay: Kidney allograft survival, combination with tacrolimus (Example 2). Conditions: Tacrolimus 1 mg/kg PO, 0-90 day, alone. As for the experimental part:
The rats and kidney transplantation methods described in Example 1 were used. The compound (I) at dose of 3 mg/kg and tacrolimus at dose of 1 mg/kg, were administered orally to recipient rats daily for 90 days after transplantation. The isograft, untreated allograft, and allograft treated with tacrolimus 1 mg/kg for 90 days alone served as control groups.

The test system is the same in assay [3]. The experiment in a line: Kidney allograft survival, treatment with brief tacrolimus (Example 4). Conditions: Tacrolimus 1 mg/kg PO, 0-9 day, alone. Here is the method: as §1

For `C=CC[C@@H]1/C=C(\C)C[C@H](C)C[C@H](OC)[C@H]2O[C@@](O)(C(=O)C(=O)N3CCCC[C@H]3C(=O)O[C@H](/C(C)=C/[C@@H]3CC[C@@H](O)[C@H](OC)C3)[C@H](C)[C@@H](O)CC1=O)[C@H](C)C[C@@H]2OC` [Tacrolimus, tacrolimus], in assay [1], the “week post transplantation after which plasma creatinine increased rapidly” value came to 8 week. In addition, the Survival day in assay [2] (n=4) and in assay [3] (n=5) was more than 90 days throughout. Besides, the “Survival rate (90 days)” value in assay [2] (untreated allograft 40%) amounted to 100%. In assay [3] (untreated allograft 40%), this molecule displayed a Survival rate of 100%.

These data come from patent US20060211725A1, “Use” (Astellas Pharma Inc., priority 2002, published 2006).
